Active and inactive are the calls of the source. The rule behind the calls is not given here.
Key:
[1] = target: Sodium-dependent serotonin transporter (Homo sapiens, UniProt P31645); test: Displacement of [125I]RTI-55 from human SERT expressed in HEK293 cells; assay type: cell-based
[2] = target: Sodium-dependent dopamine transporter (Homo sapiens, UniProt Q01959); test: Displacement of [125I]RTI-55 from human DAT expressed in HEK293 cells; assay type: cell-based
[3] = target: Sodium-dependent noradrenaline transporter (Homo sapiens, UniProt P23975); test: Displacement of [125I]nisoxetine from human NET expressed in HEK293 cells; assay type: cell-based
Sodium-dependent noradrenaline transporter, sequence (P23975 whole entry): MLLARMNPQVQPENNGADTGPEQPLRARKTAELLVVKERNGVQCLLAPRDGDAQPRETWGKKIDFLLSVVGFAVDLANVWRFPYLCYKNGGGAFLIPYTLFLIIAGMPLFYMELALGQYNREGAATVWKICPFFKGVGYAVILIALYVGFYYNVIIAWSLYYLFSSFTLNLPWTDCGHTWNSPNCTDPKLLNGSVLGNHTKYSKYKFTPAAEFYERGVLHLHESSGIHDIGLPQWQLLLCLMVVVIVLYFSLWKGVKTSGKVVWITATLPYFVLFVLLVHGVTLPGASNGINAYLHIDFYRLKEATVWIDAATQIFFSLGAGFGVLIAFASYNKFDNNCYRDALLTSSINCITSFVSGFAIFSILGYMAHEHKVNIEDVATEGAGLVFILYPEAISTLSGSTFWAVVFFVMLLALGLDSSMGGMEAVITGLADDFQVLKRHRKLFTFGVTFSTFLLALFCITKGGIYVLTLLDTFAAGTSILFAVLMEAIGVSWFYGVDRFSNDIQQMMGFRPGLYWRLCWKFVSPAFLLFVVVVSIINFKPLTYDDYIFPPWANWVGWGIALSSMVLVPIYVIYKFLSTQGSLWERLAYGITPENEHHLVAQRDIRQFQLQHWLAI

Rattus norvegicus [4] = test: Increase in extracellular serotonin level in frontal cortex of awake and free moving rat at 5 mg/kg, po by microdialysis relative to basal level; assay type: functional
Rattus norvegicus [5] = test: Increase in extracellular serotonin level in frontal cortex of awake and free moving rat at 1 mg/kg, po by microdialysis relative to basal level; assay type: functional
Rattus norvegicus [6] = test: Increase in extracellular serotonin level in frontal cortex of awake and free moving rat at 0.3 to 3 mg/kg, po by microdialysis; assay type: functional, organism-based

Sodium-dependent serotonin transporter, sequence (P31645 whole entry): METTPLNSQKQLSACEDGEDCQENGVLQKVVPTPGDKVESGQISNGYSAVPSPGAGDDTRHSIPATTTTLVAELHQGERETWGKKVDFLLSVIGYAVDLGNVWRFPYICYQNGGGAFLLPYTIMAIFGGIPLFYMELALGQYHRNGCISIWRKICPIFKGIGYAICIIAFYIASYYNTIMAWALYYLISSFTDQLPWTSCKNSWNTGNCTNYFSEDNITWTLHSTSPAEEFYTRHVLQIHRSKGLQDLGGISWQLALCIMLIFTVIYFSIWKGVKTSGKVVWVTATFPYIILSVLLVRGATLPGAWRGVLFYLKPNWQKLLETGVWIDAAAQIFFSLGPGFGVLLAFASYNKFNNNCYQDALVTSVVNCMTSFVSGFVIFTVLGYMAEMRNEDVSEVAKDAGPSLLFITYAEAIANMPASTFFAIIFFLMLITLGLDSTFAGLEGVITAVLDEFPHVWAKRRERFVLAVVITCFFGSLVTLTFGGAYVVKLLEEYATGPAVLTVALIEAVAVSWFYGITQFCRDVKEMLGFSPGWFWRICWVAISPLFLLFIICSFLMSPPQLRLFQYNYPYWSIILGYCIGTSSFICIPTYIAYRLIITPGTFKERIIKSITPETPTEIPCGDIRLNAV
Sodium-dependent dopamine transporter, sequence (Q01959 whole entry): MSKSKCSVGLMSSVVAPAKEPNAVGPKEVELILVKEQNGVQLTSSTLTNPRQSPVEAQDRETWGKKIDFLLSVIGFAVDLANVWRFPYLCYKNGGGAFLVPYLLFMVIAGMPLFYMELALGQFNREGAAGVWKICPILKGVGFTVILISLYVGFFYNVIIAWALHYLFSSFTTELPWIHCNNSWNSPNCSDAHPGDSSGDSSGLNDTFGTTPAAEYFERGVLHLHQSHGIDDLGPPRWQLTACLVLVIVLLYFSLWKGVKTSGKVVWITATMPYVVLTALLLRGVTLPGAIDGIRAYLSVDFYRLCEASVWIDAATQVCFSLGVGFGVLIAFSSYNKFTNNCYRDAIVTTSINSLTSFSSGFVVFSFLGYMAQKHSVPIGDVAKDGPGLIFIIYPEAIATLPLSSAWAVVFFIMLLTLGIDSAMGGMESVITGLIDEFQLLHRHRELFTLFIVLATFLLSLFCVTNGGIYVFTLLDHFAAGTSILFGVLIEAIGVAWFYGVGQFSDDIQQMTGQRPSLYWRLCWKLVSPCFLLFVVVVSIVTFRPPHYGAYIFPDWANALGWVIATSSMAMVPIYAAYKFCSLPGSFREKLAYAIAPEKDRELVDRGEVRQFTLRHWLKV

SMILES	IC50 [1]	other results
CCNC[C@H]1CCC[C@@H]1c1c[nH]c2ccc(C#N)cc12 (racemic)	0.17 µM	–
CN(C)C[C@@H]1CCC[C@@H]1c1c[nH]c2ccc(C#N)cc12 (racemic)	0.0026 µM	–
CN(C)C[C@@H]1CCC[C@H]1c1c[nH]c2ccc(C#N)cc12	0.058 µM	–
CCN(C)C[C@H]1CCC[C@@H]1c1c[nH]c2ccc(C#N)cc12 (racemic)	0.01 µM	–
CN(C)C[C@@H]1CCC[C@@H]1c1c[nH]c2ccc(C#N)cc12	0.0012 µM	–
CNC[C@H]1CCC[C@@H]1c1c[nH]c2ccc(C#N)cc12 (racemic)	0.007 µM	–
N#Cc1ccc2[nH]cc([C@H]3CCC[C@@H]3CN3CCCC3)c2c1 (racemic)	0.022 µM	–
CN(C)C[C@H]1CCC[C@@H]1c1c[nH]c2ccc(C#N)cc12 (racemic)	0.00032 µM	–
CCN(CC)C[C@H]1CCC[C@@H]1c1c[nH]c2ccc(C#N)cc12 (racemic)	0.24 µM	–
CN(C)C[C@H]1C[C@@H]1c1c[nH]c2ccc(C#N)cc12	0.00036 µM	IC50 [2]: 4.2 µM; IC50 [3]: 9.2 µM
CN(C)C[C@H]1CCC[C@H]1c1c[nH]c2ccc(C#N)cc12	0.13 µM	–
CN(C)C[C@H]1CCC[C@@H]1c1c[nH]c2ccc(C#N)cc12 [listing 1 of 2 here]	0.00013 µM	IC50 [2]: 0.69 µM; IC50 [3]: 7.9 µM; Activity (Rattus norvegicus [4]): >300%; Activity (Rattus norvegicus [5]): >300%
CN(C)C[C@H]1CCC[C@@H]1c1c[nH]c2ccc(C#N)cc12 [listing 2 of 2 here]	–	Activity (Rattus norvegicus [6]): Active
CN(Cc1ccccc1)C[C@H]1CCC[C@@H]1c1c[nH]c2ccc(C#N)cc12 (racemic)	0.085 µM	–
